{"source": "patent US8541408B2", "about": "“Aminodihydrothiazine derivatives substituted with a cyclic group” (Shionogi & Co., Ltd., priority 2007, dated 2013)", "target": "Recombinant human BACE-1 (Homo sapiens (Human), UniProt P56817)", "sequence (P56817 46-501)": "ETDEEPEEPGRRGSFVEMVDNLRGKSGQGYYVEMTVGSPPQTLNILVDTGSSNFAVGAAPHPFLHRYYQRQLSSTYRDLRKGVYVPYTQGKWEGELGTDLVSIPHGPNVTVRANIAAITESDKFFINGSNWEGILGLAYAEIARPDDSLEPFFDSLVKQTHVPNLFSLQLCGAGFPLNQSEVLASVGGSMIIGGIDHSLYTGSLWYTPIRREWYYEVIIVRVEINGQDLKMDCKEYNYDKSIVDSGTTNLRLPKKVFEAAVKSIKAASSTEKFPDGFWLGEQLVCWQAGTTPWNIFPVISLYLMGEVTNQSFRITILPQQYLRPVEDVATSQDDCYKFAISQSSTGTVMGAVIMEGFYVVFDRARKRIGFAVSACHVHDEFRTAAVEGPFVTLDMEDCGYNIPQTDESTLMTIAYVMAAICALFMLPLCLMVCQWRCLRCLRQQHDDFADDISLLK", "test": "Assay of β-secretase-inhibiting activity", "type": "biochemical", "settings": "substrate peptide 18 nM, BACE-1 7.4 nM, sodium acetate buffer pH 5.0, 30° C. for 3 hours", "data": [{"smiles": "CC1(C)C[C@@](C)(c2cncc(NC(=O)c3ccc(Cl)cn3)c2)N=C(N)S1", "note": "[Compound 604]", "values": [{"measurement": "IC50", "value": "≤ 1000", "unit": "nM"}]}]}
